Results: PubChem BioAssay AID488879 (Sanford-Burnham Center for Chemical Genomics, 2010)
Active and inactive are the calls of the source. The rule behind the calls is not given here.

Target: alkaline phosphatase, placental type (Homo sapiens)
Assay: PLAP enzyme inhibitors, dose response, selectivity assay for mouse IAP inhibitor project, biochemical, uHTS hits (AID 488879)
Conditions: purified human placental alkaline phosphatase, enzymatic inhibition

SMILES	IC50
CC(C)=CCc1c(O)c(CC=C(C)C)c2c(c1O)-c1cc(O)c(O)cc1CC2	> 100 µM (inactive)
O=C(c1c(O)cc(O)cc1O)C1c2c(cc(O)c3c2O[C@H](c2ccc(O)cc2)[C@@H](O)C3)OC1c1ccc(O)cc1 (stereo partly drawn)	23.2 µM
NS(=O)(=O)c1cc(C(=O)N=Nc2c(O)[nH]c3ccccc23)ccc1Cl	> 100 µM (inactive)
N#Cc1c(SCC(=O)Nc2nccs2)sc2c(O)cc(=O)[nH]c12	> 100 µM (inactive)
Cc1ccc(S(=O)(=O)N2CCC(C(=O)Nc3ccc(C(C)C)cc3)CC2)cc1	> 100 µM (inactive)
CN1C(=O)/C(=C/C=C/c2ccco2)C(=O)NC1=S	24.4 µM
CCN1C(=O)/C(=C2\SC(=S)N(NC(=O)c3ccccc3O)C2=O)c2ccccc21	> 100 µM (inactive)
CCOc1ccc(S(=O)(=O)Nc2cc(Sc3ncn[nH]3)c3oc(=O)sc3c2)cc1	> 100 µM (inactive)
Oc1cc(O)c2c(c1)O[C@H](c1ccc(O)c(O)c1)[C@@H](O)C2	> 100 µM (inactive)
O=[N+]([O-])c1ccccc1NC(=S)N/N=C/c1ccc(O)c(O)c1	> 100 µM (inactive)
S=C(NCCC(c1ccccc1)c1ccccc1)Nc1ccc(Cl)cc1	> 100 µM (inactive)
Cc1cc(Cn2nc(-c3ccccc3)cc2C(=O)NCc2cccc(C(F)(F)F)c2)on1	> 100 µM (inactive)
Cc1ccc(C)c(NS(=O)(=O)c2ccc3[nH]c(=O)oc3c2)c1	> 100 µM (inactive)
C#CCOCCOCCOCCNc1nc(N2CCN(C(=O)CCCCCCCCCCNC(=O)Cn3cc(CCCCCN)nn3)CC2)nc(N2CCN(C(=O)CCCCCCCCCCNC(=O)[C@@H](CCSC)n3cc(CCO)nn3)CC2)n1	> 100 µM (inactive)
Oc1ccc(-c2csc(Nc3cccc4ccccc34)n2)cc1O	> 100 µM (inactive)
O=C1CSC(=S)N1/N=C/c1ccc(O)c(O)c1O	> 100 µM (inactive)
CC(C(=O)O)N1C(=O)/C(=C/C=C/c2ccco2)SC1=S (stereo not drawn)	> 100 µM (inactive)
O=C(N/N=C/c1cccnc1)c1cc(O)c(O)c(O)c1	> 100 µM (inactive)
O=C1CNC(=S)N1CCc1ccc(O)c(O)c1	> 100 µM (inactive)
S=C(NCc1ccc(Cl)cc1Cl)NC1CCCCC1	> 100 µM (inactive)
COc1cc(/C=N/N2C(=O)CSC2=S)ccc1O	> 100 µM (inactive)
O=C1/C(=C\c2cccc(O)c2O)SC(=S)N1Cc1ccccc1	> 100 µM (inactive)
COc1cccc(NC(=O)CN(C)S(=O)(=O)c2ccc3[nH]c(=O)oc3c2)c1	> 100 µM (inactive)
O=S(=O)(c1ccc(NC(=S)N/N=C/c2ccc(O)c(O)c2)cc1)N1CCOCC1	2.35 µM

SMILES	IC50
O=C(NN1C(=O)CSC1=S)C(=O)NN1C(=O)CSC1=S	> 100 µM (inactive)
O=c1[nH]c2ccc(S(=O)(=O)N3CCCCC3)cc2o1	> 100 µM (inactive)
COc1cc(/C=N/NC(=O)c2cc(O)cc(O)c2)ccc1OC(=O)c1ccccc1	70.1 µM
O=C(COc1ccccc1C(=O)N/N=C\c1ccc(O)c(O)c1)N/N=C/c1ccc(O)c(O)c1	> 100 µM (inactive)
COc1ccc(CN2C3CCCC2CC(NC(=O)Nc2cccc(C)c2)C3)cc1 (stereo not drawn)	30.5 µM
O=C(CCNS(=O)(=O)c1ccc2[nH]c(=O)oc2c1)Nc1ccccc1	42.5 µM
COC(=O)C/C=N/N=C1/NC(=O)/C(=C/C(=O)O)S1	8.44 µM
O=C(CN1C(=O)/C(=C/c2ccco2)SC1=S)Nc1ccc(O)c(C(=O)O)c1	17.2 µM
Cc1cc(C)cc(NC(=S)NC2CC3CCCC(C2)N3Cc2cccs2)c1 (stereo not drawn)	42 µM
CCn1c(SCC(=O)c2ccc(O)c(O)c2)nnc1-c1ccccc1OC	> 100 µM (inactive)
CN=c1scc(-c2ccco2)n1/N=C/c1ccc(O)c(O)c1	> 100 µM (inactive)
Nc1nnc(CC(=O)N/N=C/c2cc([N+](=O)[O-])cc(Br)c2O)s1	> 100 µM (inactive)
CN(c1ccccc1C(=O)O)S(=O)(=O)c1ccc2c3c(cccc13)C(=O)N2	> 100 µM (inactive)
CCn1cc(CN2CCC(C(=O)Nc3cccc(-c4cccc(Cl)c4)c3)CC2)c(C)n1	> 100 µM (inactive)
COc1ccc(C2CC(c3ccccc3Cl)=NN2c2ccc(S(N)(=O)=O)cc2)cc1 (stereo not drawn)	> 100 µM (inactive)
O=C(NN1C(=O)/C(=C/C=C/c2ccco2)SC1=S)c1ccccc1O	27.2 µM
O=C(CSc1nc2nn(-c3ccccc3)c(=O)c-2c2n1CCCCC2)c1ccc(O)c(O)c1	> 100 µM (inactive)
Clc1ccc(C(c2ccc(Cl)cc2)n2cc[n+](CC(OCc3ccc(Cl)cc3Cl)c3ccc(Cl)cc3Cl)c2)cc1 (stereo not drawn)	> 100 µM (inactive)
Cc1ccc(NC(=S)NCc2ccccc2)cc1S(=O)(=O)N1CCCCC1	> 100 µM (inactive)
COc1cc(NC(=S)NCCC(c2ccccc2)c2ccccc2)cc(OC)c1	> 100 µM (inactive)
Cc1cc(F)ccc1S(=O)(=O)Nc1ccc(O)c(Sc2ncn[nH]2)c1	6.94 µM
O=C(NC1CCCCC1)Oc1cc2oc(=O)sc2cc1Cl	5.95 µM
C=CCn1cc(CN2CCC(C(=O)Nc3cccc(-c4cccc(Cl)c4)c3)CC2)c(C)n1	34.3 µM
CC(/C=C/C1(O)C(C)CC(=O)CC1(C)C)OC1OC(CO)C(O)C(O)C1O (stereo not drawn)	> 100 µM (inactive)

SMILES	IC50
COCc1ccc(CN2CCC(C(=O)Nc3cccc(-c4cccc(Cl)c4)c3)CC2)o1	> 100 µM (inactive)
Cc1ccc(S(=O)(=O)Nc2ccc(O)c(Sc3ncn[nH]3)c2)cc1	> 100 µM (inactive)
FC(F)Oc1ccc(NC(=S)NC2CCSc3ccccc32)cc1 (stereo not drawn)	> 100 µM (inactive)
C#CCOCCOCCOCCNc1nc(N2CCN(C(=O)CCCCCCCCCCNC(=O)[C@@H](CCSC)n3cc(CCO)nn3)CC2)nc(N2CCN(C(=O)CCCCCCCCCCNC(=O)[C@H]([C@@H](C)CC)n3cc(CCCCN=C(N)N)nn3)CC2)n1	> 100 µM (inactive)
N#Cc1c(SCC(=O)Nc2nncs2)sc2c(O)cc(=O)[nH]c12	> 100 µM (inactive)
O=C(O)CCCN1C(=O)/C(=C/C=C/c2ccco2)SC1=S	> 100 µM (inactive)
Cc1ccc(/C=C2\SC(=S)N(/N=C/c3cc([N+](=O)[O-])ccc3O)C2=O)o1	> 100 µM (inactive)
COc1cc(NS(=O)(=O)c2ccc(NC(=S)NC(=O)/C=C/c3ccco3)cc2)ncn1	55.1 µM
O=C(NCCCCc1ccccc1)NC[C@@H]1CC[C@@H](Cc2ccc(-c3ccccc3)cc2)O1	6.58 µM
O=C(/C=C/c1ccco1)NC(=S)Nc1ccc(C(=O)O)cc1	> 100 µM (inactive)
N#Cc1c(SCC(=O)Nc2nc3ccccc3s2)sc2c(O)cc(=O)[nH]c12	> 100 µM (inactive)
CCCCCOc1ccc(C(=O)CCC(=O)NNC(=O)c2ccncc2)cc1	> 100 µM (inactive)
COc1cccc(NC(=S)NCCC(c2ccccc2)c2ccccc2)c1	> 100 µM (inactive)
O=c1ccc2c(-c3ccccc3S(=O)(=O)O)c3ccc(O)c(O)c3oc-2c1O	> 100 µM (inactive)
Cc1nn(C(C)C)c(C)c1CN1CCC(C(=O)Nc2cccc(-c3cccc(F)c3)c2)CC1	56.6 µM
NS(=O)(=O)c1cccc(NC(=O)CSc2nnc(-c3ccncc3)n2C2CC2)c1	> 100 µM (inactive)
NS(=O)(=O)c1ccc(-c2ccc(/C=C3\NC(=S)NC3=O)o2)cc1	> 100 µM (inactive)
CCN(c1ccccc1)S(=O)(=O)c1ccc2[nH]c(=O)[nH]c2c1	62.6 µM
NC1=NC(=O)/C(=C\c2ccco2)S1	32 µM
Oc1cc(O)c2c(c1)OC(c1ccc(O)c(O)c1)C(O)C2 (stereo not drawn)	> 100 µM (inactive)
O=C(CSc1ncn[nH]1)CSc1ncn[nH]1	23 µM
CCOc1ccc(S(=O)(=O)Nc2ccc(O)c(Sc3ncn[nH]3)c2)cc1	20.5 µM
O=C1CC(c2ccc(O)c(O)c2)Oc2c1ccc(O)c2O (stereo not drawn)	> 100 µM (inactive)
CCn1nc(C)c(CN2CCC(C(=O)Nc3cccc(-c4cccc(Cl)c4)c3)CC2)c1C	> 100 µM (inactive)

SMILES	IC50
Cc1ccc(N/C(N)=N/c2nc(C)cc(N3CCCCC3)n2)c(C)c1	26.3 µM
O=C(Nc1ccc(Cl)cc1)NC1CCCCC1Cc1ccco1 (stereo not drawn)	> 100 µM (inactive)
CCOC(=O)c1ccc(N2CCN(c3ccccc3F)CC2)c(NC(=O)Nc2ccccc2)c1	> 100 µM (inactive)
C#CCOCCOCCOCCNc1nc(N2CCN(C(=O)CCCCCCCCCCNC(=O)Cn3cc(C[C@@H](C)O)nn3)CC2)nc(N2CCN(C(=O)CCCCCCCCCCNC(=O)[C@H](CCCCN)n3cc(C[C@@H](C)CC)nn3)CC2)n1	> 100 µM (inactive)
S=C(NCCC(c1ccccc1)c1ccccc1)Nc1cccc(Cl)c1	72.7 µM
O=C1NN(c2cccc(Br)c2)C(=O)/C1=C/c1ccc(-c2cc([N+](=O)[O-])ccc2O)o1	> 100 µM (inactive)
COc1cc(/C=C/C(O)=C/C(=O)/C=C/c2ccc(O)cc2)ccc1O	> 100 µM (inactive)
CCc1cc(Cn2nc(-c3ccccc3)cc2C(=O)NCc2cccc(Br)c2)on1	> 100 µM (inactive)
COc1ccc(Cl)cc1NC(=S)NCCC(c1ccccc1)c1ccccc1	39.4 µM
Cc1cc(Cl)ccc1NC(=S)NCCC(c1ccccc1)c1ccccc1	> 100 µM (inactive)
COc1ccc(C(=O)OCC(=O)Nc2ncc([N+](=O)[O-])s2)cc1OC	> 100 µM (inactive)
COC(=O)c1ccc(NS(=O)(=O)c2ccc3[nH]c(=O)oc3c2)cc1	> 100 µM (inactive)
Cc1c(Cl)cccc1NC(=S)NCCC(c1ccccc1)c1ccccc1	> 100 µM (inactive)
O=C1/C(=C/c2ccc(O)c(O)c2)Oc2cc(O)ccc21	67.2 µM
O=C(CCN1C(=O)/C(=C/c2ccco2)SC1=S)Nc1ccc(O)cc1C(=O)O	> 100 µM (inactive)
N#CC(C#N)=Cc1ccc(O)c(O)c1	> 100 µM (inactive)
C#CCOCCOCCOCCNc1nc(N2CCN(C(=O)CCCCCCCCCCNC(=O)Cn3cc(C[C@@H](C)O)nn3)CC2)nc(N2CCN(C(=O)CCCCCCCCCCNC(=O)[C@@H](CCSC)n3cc(CCO)nn3)CC2)n1	39.9 µM
CCOC(=O)c1ccc(N2CCN(c3ccccc3F)CC2)c(NC(=O)Nc2cccc(OC)c2)c1	> 100 µM (inactive)
Cc1cccnc1Nc1nc(-c2ccc(O)c(O)c2)cs1	> 100 µM (inactive)
Cc1ccc(CNC(=S)NC2CCC(C(C)(C)C)CC2)cc1 (stereo not drawn)	> 100 µM (inactive)
COc1ccc(N2C(=O)/C(=C/c3ccco3)C(=O)NC2=S)cc1	64.9 µM
